Our source for the IC50 values is patent US20260049068A1, “Substituted Tetrazolyl Compounds Useful as T Cell Activators” (BRISTOL-MYERS SQUIBB COMPANY, priority 2022, published 2026).
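Also: ADP-Glo luminescence assay of ADP formed by 5 nM full-length DGKα on extruded PS/DAG/PC liposomes with 150 µM ATP, 1 h reaction, 11-point inhibitor titration.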

The target in the assay is Full length human DGKα (Homo sapiens (Human), UniProt P23743).
Sequence of Full length human DGKα (P23743 other isoform, or with tags, fused parts or gaps): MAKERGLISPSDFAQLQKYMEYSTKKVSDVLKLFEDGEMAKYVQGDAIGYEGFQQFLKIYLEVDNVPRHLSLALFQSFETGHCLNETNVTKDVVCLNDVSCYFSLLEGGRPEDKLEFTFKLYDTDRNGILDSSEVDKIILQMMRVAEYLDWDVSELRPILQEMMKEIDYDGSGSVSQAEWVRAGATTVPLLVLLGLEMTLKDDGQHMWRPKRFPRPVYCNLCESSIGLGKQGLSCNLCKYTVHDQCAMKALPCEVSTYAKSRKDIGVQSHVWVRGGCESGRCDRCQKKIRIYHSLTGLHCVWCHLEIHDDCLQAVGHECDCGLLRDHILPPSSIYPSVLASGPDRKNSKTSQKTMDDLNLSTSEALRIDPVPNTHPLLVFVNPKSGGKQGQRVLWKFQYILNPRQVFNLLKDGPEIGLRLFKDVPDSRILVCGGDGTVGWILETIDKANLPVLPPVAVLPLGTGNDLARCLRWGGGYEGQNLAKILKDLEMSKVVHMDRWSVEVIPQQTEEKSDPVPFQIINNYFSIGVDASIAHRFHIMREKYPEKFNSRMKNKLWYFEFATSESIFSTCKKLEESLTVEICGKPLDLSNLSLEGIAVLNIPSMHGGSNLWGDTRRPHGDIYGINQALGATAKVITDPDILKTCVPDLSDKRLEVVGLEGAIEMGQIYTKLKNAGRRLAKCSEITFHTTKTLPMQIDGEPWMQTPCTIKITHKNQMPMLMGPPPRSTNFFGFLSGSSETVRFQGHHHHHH
Procedure: The DGKα (Full Length and Near Full Length) ADP Glo assays were performed using an extruded liposome prep at either 5% DAG or 10% DAG. The Enzymatic reactions were carried out in 50 mM MOPS pH 7.5, 100 mM NaCl, 10 mM MgCl2, 1 μM CaCl2, and 1 mM DTT (assay buffer). The lipid substrate concentrations were 1.9 mM PS, either 0.25 mM DAG (5% liposome prep) or 0.5 mM DAG (10% liposome prep), and 2.7 mM PC for the extruded liposome reactions. The reactions were carried out at 150 μM ATP. The enzyme concentrations for the DGKα(Near Full Length) and DGKα(FL) were 5 nM.
The compound inhibition studies were carried out as follows: 25 nL droplets of each test compound (11 point, 3-fold dilution series for each compound) solubilized in DMSO were transferred to wells of a white 1536 well plate (Corning 3725). A 5 mL enzyme/substrate (substrate being the 5× or 10× liposome preparation) solution at 2× final reaction concentrations was prepared by combining 5 ml of the extruded liposome preparation with 10 nM (2× final) DGKα(Near Full Length) or DGKα(Full Length) prepared as described below) and incubated at room temperature for 10 minutes. Next, 1 μL of the 2× enzyme/substrate solution was added to wells containing the test compound and reactions were initiated with the addition of 1 μL 300 uM ATP. Substrate only was added to DMSO only wells for background measurements. The reactions were allowed to proceed for 1 hr, after which 2 μL Glo Reagent (Promega V9101) was added and incubated for 40 minutes. Next, 4 μL Kinase Detection Reagent was added and incubated for 30 minutes. Luminescence was recorded using an EnVision microplate reader. […] The compounds were evaluated at 11 concentrations to determine IC50.
What is called IC50 is the point on the concentration scale where inhibition reaches its midpoint. In the case of `COc1ccc(-n2nnnc2CN(C)C2CCCCC2)cc1` [Example 31, N-((1-(4-methoxyphenyl)-1H-tetrazol-5-yl)methyl)-N-methylcyclohexanamine], it took 56 µM to reach half-maximal inhibition (IC50).

On to `CN(Cc1nnnn1-c1ccc([N+](=O)[O-])cc1)C1CCCCC1` [Example 32, N-methyl-N-((1-(4-nitrophenyl)-1H-tetrazol-5-yl)methyl)cyclohexanamine], for which 13 µM corresponded to half-maximal inhibition (IC50).

The compound `COC(=O)c1cccc(-n2nnnc2CN(C)C2CCCCC2)c1` [Example 33, methyl 3-(5-((cyclohexyl(methyl)amino)methyl)-1H-tetrazol-1-yl)benzoate] yielded an IC50 above 240 µM.

Take `CN(Cc1nnnn1-c1cccc(C(=O)O)c1)C1CCCCC1` [Example 34, 3-(5-((cyclohexyl (methyl)amino)methyl)-1H-tetrazol-1-yl)benzoic acid]: the IC50 was above 81 µM.

As to `Cc1cccc(-n2nnnc2CN(C)C2CCCCC2)c1` [Example 35, N-methyl-N-((1-(m-tolyl)-1H-tetrazol-5-yl)methyl)cyclohexanamine], the IC50 was 50 µM.

The compound `CN(Cc1nnnn1-c1cccc(Cl)c1)C1CCCCC1` [Example 36, N-((1-(3-chlorophenyl)-1H-tetrazol-5-yl)methyl)-N-methylcyclohexanamine] had an IC50 of 11 µM.

With `O=[N+]([O-])c1cccc(-n2nnnc2CN(CCO)C2CCCCC2)c1` [Example 43, 2-(cyclohexyl((1-(3-nitrophenyl)-1H-tetrazol-5-yl)methyl)amino)ethan-1-ol], the IC50 was 72 µM.

With `CN(Cc1nnnn1-c1cccc(Br)c1)C1CCCCC1` [Example 45, N-((1-(3-bromophenyl)-1H-tetrazol-5-yl)methyl)-N-methylcyclohexanamine], the half-maximal inhibitory concentration (IC50) turned out to be 12 µM.

`CN(Cc1nnnn1-c1ccc(F)nc1)C1CCCCC1` [Example 46, N-((1-(6-fluoropyridin-3-yl)-1H-tetrazol-5-yl)methyl)-N-methylcyclohexanamine] came in with an IC50 of 16 µM.

In turn, `CN(Cc1nnnn1-c1cc(C#N)c(=O)n(C)c1)C1CCCCC1` [Example 48, 5-(5-((cyclohexyl(methyl)amino)methyl)-1H-tetrazol-1-yl)-1-methyl-2-oxo-1,2-dihydropyridine-3-carbonitrile] returned an IC50 of 56 µM.

`CN(Cc1nnnn1-c1ccc(Cl)c(C(F)(F)F)c1)C1CCCCC1` [Example 49, N-((1-(4-chloro-3-(trifluoromethyl)phenyl)-1H-tetrazol-5-yl)methyl)-N-methylcyclohexanamine] registered an IC50 of 17 µM.

Turning to `CC1CCC(C)N1Cc1nnnn1-c1ccc(Cl)c(C#N)c1` (centres unmarked) [Example 50, 2-chloro-5-(5-((2,5-dimethylpyrrolidin-1-yl)methyl)-1H-tetrazol-1-yl)benzonitrile], the IC50 stood at 54 µM.

On to `CCOC(=O)C1CCC(N(Cc2nnnn2-c2ccc(Cl)c(C#N)c2)C2CC2)CC1` (centres unmarked) [Example 51, ethyl 4-(((1-(4-chloro-3-cyanophenyl)-1H-tetrazol-5-yl)methyl)(cyclopropyl)amino) cyclohexane-1-carboxylate], for which it took 13 µM to reach half-maximal inhibition (IC50).

`N#Cc1cc(-n2nnnc2CN(CC(O)c2ccccc2)C2CCCCC2)ccc1Cl` (centres unmarked) [Example 52, 2-chloro-5-(5-((cyclohexyl(2-hydroxy-2-phenylethyl)amino)methyl)-1H-tetrazol-1-yl)benzonitrile] had a half-maximal inhibitory concentration (IC50) of 11 µM.

For `CCCN(Cc1nnnn1-c1ccc(Cl)c(C#N)n1)C1CCCCC1` [Example 53, 3-chloro-6-(5-((cyclohexyl(propyl)amino)methyl)-1H-tetrazol-1-yl)picolinonitrile], half-maximal inhibition (IC50) required 15 µM.

For the compound `N#Cc1nc(-n2nnnc2CN(CCCNC(=O)c2ccccc2)C2CCCCC2)ccc1Cl` [Example 54, N-(3-(((1-(5-chloro-6-cyanopyridin-2-yl)-1H-tetrazol-5-yl)methyl)(cyclohexyl)amino)propyl)benzamide], half-maximal inhibition (IC50) required 70 µM.

Regarding `CC(C)N(Cc1nnnn1-c1ccc(Cl)c(C#N)n1)C1CCCCC1` [Example 55, 3-chloro-6-(5-((cyclohexyl(isopropyl)amino)methyl)-1H-tetrazol-1-yl)picolinonitrile], the IC50 is 46 µM.
